One experiment addresses T1, Human ACC2 (Homo sapiens, UniProt O00763).
T1 construct: made in house; host or cells: SF-9 insect cells (baculovirus, pFAST-BacHTa)
The experiment in a line: in vitro enzymatic ACC activity assay (malachite green, absorbance at 620 nm), ACC2. The format is biochemical. The note with it: recombinant His-tagged human ACC2, 6.4 μg/mL; same method as ACC1. The method, then:
(§1) Provided in Example A is an in vitro enzymatic ACC activity assay for activity against ACC. The binding affinity of the test compound to ACC1 or ACC2 is determined by the changes in absorbance (at 620 nm); […]. It should be noted that a variety of other expression systems and hosts are also suitable for the expression of ACC, as would be readily appreciated by one of skill in the art.
B. Purification of Human ACC2
Human ACC2 cDNA except coding region for mitochondria localization sequence was amplified from human skeletal muscle cDNA by polymerase chain reaction using primers; 5′[…]3′ (SEQ ID NO: 3) and 5′[…]3′ (SEQ ID NO: 4). The amplified DNA fragment was digested by SalI and AflIII, and cloned into pFAST-BacHTa (Invitrogen). Preparation of recombinant vaculovirus, infection of the virus to SF-9 cells and purification of recombinant ACC2 protein with 6×His-tag at the N-terminal were performed in the same method as described above.
(§2) C. Measurement of ACC Activity
(§3) Malachite green solution was prepared by mixing 100 mL of solution A (0.12% malachite green in 5N H2SO4), 25 mL of solution B (7.5% ammonium molybdate) and 2 mL of solution C (11% TWEEN-20).
(§4) ACC1 was diluted to 8 μg/mL in reaction buffer (50 mM HEPES pH7.5, 10 mM MgCl2, 10 mM tripotassium citrate, 2 mM DTT, 0.75 mg/mL fatty acid free BSA) and 10 μL diluted enzyme solution was pored into each well of 384-well clear bottom plate. Test compound was diluted in the reaction buffer and 5 μL of the compound solution was added into each well, and the mixture was incubated at 30° C. for 60 minutes. Reaction was initiated by addition of 5 μL substrate solution (50 mM KHCO3, 200 μM ATP, 200 μM acetyl-CoA). After incubation at 30° C. for 20 minutes, reaction was terminated by addition of 5 μL malachite green solution and absorbance at 620 nm was measured.
ACC2 was diluted to 6.4 μg/mL in reaction buffer, and the activity was measured by the same method as described for ACC1.
(§5) Percent activity at each concentration of compound was calculated from the following equation:
(§6) [formula] where Abs is absorbance, Avg is average.
(§7) Data were subjected to nonlinear regression analysis using GraphPad Prism Software (GraphPad Software Inc.) to obtain IC50 values.

In another experiment the target is T2, Human ACC1 (Homo sapiens, UniProt Q13085).
T2 construct: made in house; host or cells: SF-9 insect cells (baculovirus, pFAST-BacHTc)
The experiment in a line: in vitro enzymatic ACC activity assay (malachite green, absorbance at 620 nm), ACC1. The format is biochemical. The following applies: recombinant His-tagged human ACC1, 8 μg/mL; 60 min preincubation, 20 min reaction at 30° C. The method, then: as §1
A. Purification of Human ACC1
Human ACC1 cDNA was amplified from human liver cDNA by polymerase chain reaction using primers; 5′[…]3′ (SEQ ID NO. 1) and 5′[…]3′ (SEQ ID NO: 2). The amplified DNA fragment was digested by restriction enzyme SalI and NotI, and cloned into pFAST-BacHTc (Invitrogen). This plasmid DNA was used for preparation of recombinant vaculovirus with BAC-TO-BAC Baculovirus Expression System (Invitrogen).
SF-9 cells were infected with the vaculovirus and cultured at 27° C. for 3 days. Harvested cells were homogenized in buffer A (25 mM HEPES (pH7.5), 130 mM NaCl, 1 mM EDTA, 25 mM sodium glycerophosphate, 1 mM sodium orthovanadate, 10% glycerol, complete protease inhibitor), and subjected to ultracentrifuge at 185700×g for 50 min at 4° C. ACC1 protein with 6×His-tag at the N-terminal was purified from the supernatant using Ni-NTA Super Flow Gel (QIAGEN). Eluted protein was dialysed against buffer B (50 mM HEPES (pH 7.5), 300 mM NaCl, 10 mM MgCl2, 10 mM tripotassium citrate, 2 mM dithiothreitol) and concentrated using Vivaspin20 ultrafiltration tube (Sartorius).
as §2, §3, §4, §5, §6, §7

The IC50 is the concentration at which inhibition is half-maximal.

T1 sequence (O00763 117-2458 limits assumed): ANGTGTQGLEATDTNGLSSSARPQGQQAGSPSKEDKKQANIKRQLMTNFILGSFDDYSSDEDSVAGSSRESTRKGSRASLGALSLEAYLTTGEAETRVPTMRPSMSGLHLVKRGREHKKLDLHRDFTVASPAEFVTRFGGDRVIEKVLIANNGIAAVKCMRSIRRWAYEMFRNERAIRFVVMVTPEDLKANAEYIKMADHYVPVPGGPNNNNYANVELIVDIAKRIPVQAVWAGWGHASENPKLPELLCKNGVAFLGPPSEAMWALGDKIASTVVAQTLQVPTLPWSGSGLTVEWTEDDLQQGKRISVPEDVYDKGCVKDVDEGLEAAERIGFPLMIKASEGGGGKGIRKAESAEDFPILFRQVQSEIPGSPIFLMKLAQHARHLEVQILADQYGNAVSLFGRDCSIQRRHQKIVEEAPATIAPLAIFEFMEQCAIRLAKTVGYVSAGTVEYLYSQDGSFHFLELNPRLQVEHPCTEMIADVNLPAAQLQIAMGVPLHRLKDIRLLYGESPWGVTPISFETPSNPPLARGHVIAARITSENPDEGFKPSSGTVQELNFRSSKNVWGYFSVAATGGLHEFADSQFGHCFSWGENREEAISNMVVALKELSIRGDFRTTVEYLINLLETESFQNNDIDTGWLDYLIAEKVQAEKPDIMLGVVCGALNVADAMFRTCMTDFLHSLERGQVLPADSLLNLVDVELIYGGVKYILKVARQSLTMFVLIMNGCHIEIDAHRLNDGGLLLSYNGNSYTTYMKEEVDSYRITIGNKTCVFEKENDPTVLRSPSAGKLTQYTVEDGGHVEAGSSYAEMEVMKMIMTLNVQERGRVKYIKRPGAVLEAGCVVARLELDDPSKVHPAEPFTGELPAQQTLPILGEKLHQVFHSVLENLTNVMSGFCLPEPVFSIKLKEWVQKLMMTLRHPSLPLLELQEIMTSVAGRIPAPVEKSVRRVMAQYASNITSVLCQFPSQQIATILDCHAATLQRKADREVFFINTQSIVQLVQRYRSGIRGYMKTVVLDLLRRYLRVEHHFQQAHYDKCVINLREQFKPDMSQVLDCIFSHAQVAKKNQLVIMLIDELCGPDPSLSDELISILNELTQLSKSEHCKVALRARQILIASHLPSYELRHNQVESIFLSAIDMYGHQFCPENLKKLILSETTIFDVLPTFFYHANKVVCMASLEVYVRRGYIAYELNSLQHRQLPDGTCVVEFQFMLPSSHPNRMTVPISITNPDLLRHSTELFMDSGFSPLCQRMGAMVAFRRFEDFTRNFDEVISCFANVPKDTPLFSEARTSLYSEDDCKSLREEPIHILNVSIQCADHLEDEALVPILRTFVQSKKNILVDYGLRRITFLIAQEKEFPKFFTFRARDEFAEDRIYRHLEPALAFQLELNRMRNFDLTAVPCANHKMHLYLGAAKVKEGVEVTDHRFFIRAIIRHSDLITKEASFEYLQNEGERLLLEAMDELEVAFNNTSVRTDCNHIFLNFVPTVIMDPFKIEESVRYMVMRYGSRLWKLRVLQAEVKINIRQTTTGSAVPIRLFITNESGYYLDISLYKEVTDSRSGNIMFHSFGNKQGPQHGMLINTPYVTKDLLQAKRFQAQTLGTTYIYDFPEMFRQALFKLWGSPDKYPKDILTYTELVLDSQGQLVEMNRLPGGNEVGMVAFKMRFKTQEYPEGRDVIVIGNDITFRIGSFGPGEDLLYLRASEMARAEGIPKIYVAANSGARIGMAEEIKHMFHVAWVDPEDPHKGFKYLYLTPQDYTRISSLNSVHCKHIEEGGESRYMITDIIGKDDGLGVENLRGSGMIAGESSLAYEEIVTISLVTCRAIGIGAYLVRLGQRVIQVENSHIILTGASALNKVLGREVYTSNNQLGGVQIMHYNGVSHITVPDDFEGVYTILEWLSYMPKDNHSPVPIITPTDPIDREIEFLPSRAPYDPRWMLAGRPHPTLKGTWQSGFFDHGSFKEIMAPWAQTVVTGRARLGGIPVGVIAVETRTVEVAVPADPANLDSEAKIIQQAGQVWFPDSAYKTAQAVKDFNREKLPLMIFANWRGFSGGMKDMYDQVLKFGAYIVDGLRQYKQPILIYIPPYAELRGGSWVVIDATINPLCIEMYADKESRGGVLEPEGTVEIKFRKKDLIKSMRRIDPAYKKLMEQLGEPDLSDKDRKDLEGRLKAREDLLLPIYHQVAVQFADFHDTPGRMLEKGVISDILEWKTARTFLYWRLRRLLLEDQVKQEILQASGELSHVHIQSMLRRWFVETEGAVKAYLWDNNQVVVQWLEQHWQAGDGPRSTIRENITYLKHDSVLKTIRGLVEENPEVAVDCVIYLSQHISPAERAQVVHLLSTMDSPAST

As to `CCNC(=O)Nc1sc2ccccc2c1C(=O)N1CCC2(CC1)N=C(Cn1cc(C3CC3)nn1)NC2=O` [Compound 38, 1-(3-(2-((4-cyclopropyl-1 H-1,2,3-triazol-1-yl)methyl)-4-oxo-1,3,8-triazaspiro[4.5]dec-1-enecarbonyl)benzo[b]thiophen-2-yl)-3-ethylurea], the IC50 at Human ACC2 was under 1 µM; on Human ACC1 it was 1 to 10 µM.

Take `CCCCC1=NC2(CCN(C(=O)c3c(NC(=O)NCC)sc4c(OC)cccc34)CC2)C(=O)N1` [Compound 17, 1-(3-(2-butyl-4-oxo-1,3,8-triazaspiro[4.5]dec-1-enecarbonyl)-7-methoxybenzo[b]thiophen-2-yl)-3-ethylurea]: the IC50 at Human ACC2 and at Human ACC1 was under 1 µM throughout.

For `CCNC(=O)Nc1sc2ccccc2c1C(=O)N1CCC2(CC1)N=C(COc1ccccc1C(N)=O)NC2=O` [Compound 27, 2-((8-(2-(3-ethylureido)benzo[b]thiophene-3-carbonyl)-4-oxo-1,3,8-triazaspiro[4.5]dec-1-en-2-yl)methoxy)benzamide], the IC50 on Human ACC2 is under 1 µM; at Human ACC1, over 10 µM.

In the case of `CCNC(=O)Nc1sc2ccccc2c1C(=O)N1CCC2(CC1)N=C(CCC(=O)N1CCCCC1)NC2=O` [Compound 13, 1-ethyl-3-(3-(4-oxo-2-(3-oxo-3-(piperidin-1-yl)propyl)-1,3,8-triazaspiro[4.5]dec-1-enecarbonyl)benzo[b]thiophen-2-yl)urea], the IC50 at Human ACC2 was under 1 µM; on Human ACC1 it was 1 to 10 µM.

Regarding `CCNC(=O)Nc1sc2ccccc2c1C(=O)N1CCC2(CC1)N=C(Cn1cc(CO)nn1)NC2=O` [Compound 37, 1-ethyl-3-(3-(2-((4-(hydroxymethyl)-1 H-1,2,3-triazol-1-yl)methyl)-4-oxo-1,3,8-triazaspiro[4.5]dec-1-enecarbonyl)benzo[b]thiophen-2-yl)urea], the IC50 on Human ACC2 was 1 to 10 µM; at Human ACC1, over 10 µM.

With `CCNC(=O)Nc1sc2c(OC)cccc2c1C(=O)N1CCC2(CC1)N=C(COCC(C)C)NC2=O` [Compound 31, 1-ethyl-3-(3-(2-(isobutoxymethyl)-4-oxo-1,3,8-triazaspiro[4.5]dec-1-enecarbonyl)-7-methoxybenzo[b]thiophen-2-yl)urea], the IC50 at Human ACC2 and on Human ACC1 was under 1 µM each time.

For `CCNC(=O)Nc1sc2c(OC)cccc2c1C(=O)N1CCC2(CC1)NC(c1ccccc1)=NC2=O` [Compound 18, 1-ethyl-3-(7-methoxy-3-(4-oxo-2-phenyl-1,3,8-triazaspiro[4.5]dec-2-enecarbonyl)benzo[b]thiophen-2-yl)urea], the values for the IC50 at Human ACC2 and at Human ACC1 were under 1 µM and 1 to 10 µM, respectively.

With `CCNC(=O)Nc1sc2ccccc2c1C(=O)N1CCC2(CC1)N=C(COC1CCCCC1)NC2=O` [Compound 28, 1-(3-(2-(cyclohexyloxymethyl)-4-oxo-1,3,8-triazaspiro[4.5]dec-1-enecarbonyl)benzo[b]thiophen-2-yl)-3-ethylurea], the IC50 at Human ACC2 is under 1 µM; on Human ACC1, 1 to 10 µM.

For the compound `CCNC(=O)Nc1sc2ccccc2c1C(=O)N1CCC2(CC1)N=CNC2=O` [Compound 14, 1-ethyl-3-(3-(4-oxo-1,3,8-triazaspiro[4.5]dec-1-enecarbonyl)benzo[b]thiophen-2-yl)urea], the half-inhibitory concentration (IC50) on Human ACC2 and at Human ACC1 was over 10 µM in each case.

As for `CCCCC1=NC2(CCN(C(=O)c3c(NC(=O)NCC)sc4ccccc34)CC2)C(=O)N1` [Compound 15, 1-(3-(2-butyl-4-oxo-1,3,8-triazaspiro[4.5]dec-1-enecarbonyl)benzo[b]thiophen-2-yl)-3-ethylurea], the concentration for half-maximal inhibition (IC50) at Human ACC2 is under 1 µM; at Human ACC1 it was 1 to 10 µM.

For the compound `CCNC(=O)Nc1sc2ccccc2c1C(=O)N1CCC2(CC1)N=C(CSc1ccc(F)cc1)NC2=O` [Compound 21, 1-ethyl-3-(3-(2-((4-fluorophenylthio)methyl)-4-oxo-1,3,8-triazaspiro[4.5]dec-1-enecarbonyl)benzo[b]thiophen-2-yl)urea], the IC50 at Human ACC2 and at Human ACC1 was 1 to 10 µM throughout.

Consider `CCNC(=O)Nc1sc2ccccc2c1C(=O)N1CCC2(CC1)N=C(Cn1ccccc1=O)NC2=O` [Compound 33, 1-ethyl-3-(3-(4-oxo-2-((2-oxopyridin-1(2 H)-yl)methyl)-1,3,8-triazaspiro[4.5]dec-1-enecarbonyl)benzo[b]thiophen-2-yl)urea], for which the IC50 was 1 to 10 µM at Human ACC2 and over 10 µM at Human ACC1.

For `CCCCN1C=NC2(CCN(C(=O)c3c(NC(=O)NCC)sc4ccccc34)CC2)C1=O` [Compound 20, 1-(3-(3-butyl-4-oxo-1,3,8-triazaspiro[4.5]dec-1-enecarbonyl)benzo[b]thiophen-2-yl)-3-ethylurea], the IC50 on Human ACC2 is 1 to 10 µM; at Human ACC1, over 10 µM.

In the case of `CCNC(=O)Nc1sc2c(OC)cccc2c1C(=O)N1CCC2(CC1)N=C(C(C)C)NC2=O` [Compound 16, 1-ethyl-3-(3-(2-isopropyl-4-oxo-1,3,8-triazaspiro[4.5]dec-2-enecarbonyl)-7-methoxybenzo[b]thiophen-2-yl)urea], the IC50 on Human ACC2 is under 1 µM; on Human ACC1, 1 to 10 µM.

For the compound `CCNC(=O)Nc1sc2ccccc2c1C(=O)N1CCC2(CC1)N=C(CCl)NC2=O` [Compound 8, 1-(3-(2-(chloromethyl)-4-oxo-1,3,8-triazaspiro[4.5]dec-1-enecarbonyl)benzo[b]thiophen-2-yl)-3-ethylurea], the IC50 was 1 to 10 µM on Human ACC2 and over 10 µM at Human ACC1.

For `CCNC(=O)Nc1sc2ccccc2c1C(=O)N1CCC2(CC1)N=C(CS(C)(=O)=O)NC2=O` [Compound 4, 1-ethyl-3-(3-(2-(methylsulfonylmethyl)-4-oxo-1,3,8-triazaspiro[4.5]dec-1-enecarbonyl)benzo[b]thiophen-2-yl)urea], the values for the IC50 at Human ACC2 and on Human ACC1 were 1 to 10 µM and over 10 µM, respectively.

As to `CCNC(=O)Nc1sc2ccccc2c1C(=O)N1CCC2(CC1)N=C(COC(C)C)NC2=O` [Compound 29, 1-ethyl-3-(3-(2-(isopropoxymethyl)-4-oxo-1,3,8-triazaspiro[4.5]dec-1-enecarbonyl)benzo[b]thiophen-2-yl)urea], the IC50 on Human ACC2 and on Human ACC1 was 1 to 10 µM each time.

Take `CCNC(=O)Nc1sc2ccccc2c1C(=O)N1CCC2(CC1)N=C(CCC(=O)OCC)NC2=O` [Compound 10, ethyl 3-(8-(2-(3-ethylureido)benzo[b]thiophene-3-carbonyl)-4-oxo-1,3,8-triazaspiro[4.5]dec-1-en-2-yl)propanoate]: the IC50 at Human ACC2 and at Human ACC1 was 1 to 10 µM each time.

On to `CCNC(=O)Nc1sc2ccccc2c1C(=O)N1CCC2(CC1)N=C(CCC(=O)N(CC)CC)NC2=O` [Compound 12, N,N-diethyl-3-(8-(2-(3-ethylureido)benzo[b]thiophene-3-carbonyl)-4-oxo-1,3,8-triazaspiro[4.5]dec-1-en-2-yl)propanamide], for which the IC50 at Human ACC2 and on Human ACC1 was 1 to 10 µM each time.

`CCNC(=O)Nc1sc2c(OC)cccc2c1C(=O)N1CCC2(CC1)N=C(CCl)NC2=O` [Compound 9, 1-(3-(2-(chloromethyl)-4-oxo-1,3,8-triazaspiro[4.5]dec-1-enecarbonyl)-7-methoxybenzo[b]thiophen-2-yl)-3-ethylurea]: the IC50 on Human ACC2 and at Human ACC1 was 1 to 10 µM in each case.

In the case of `CCNC(=O)Nc1sc2ccccc2c1C(=O)N1CCC2(CC1)N=C(Cn1cc(C(C)(C)C)nn1)NC2=O` [Compound 36, 1-(3-(2-((4-tert-butyl-1 H-1,2,3-triazol-1-yl)methyl)-4-oxo-1,3,8-triazaspiro[4.5]dec-1-enecarbonyl)benzo[b]thiophen-2-yl)-3-ethylurea], the IC50 is under 1 µM at Human ACC2 and 1 to 10 µM at Human ACC1.

The values are drawn from patent US7981904B2, “Acetyl CoA carboxylase inhibitors” (Takeda Pharmaceutical Company Limited, priority 2008, dated 2011).
